The values below come from ChEMBL document CHEMBL3407485, “Design, synthesis and pharmacological evaluation of novel N-(2-(1, 1-dimethyl-5, 7-dioxo-4, 6-diazaspiro[2.4]heptan-6-yl)ethyl) sulfonamide derivatives as potential anticonvulsant agents” (Eur J Med Chem, 2015).

The subject of series [1] is Mus musculus. As to the kind of experiment: Neurotoxicity in Kunming mouse assessed as motor impairment at 300 mg/kg, ip after 4 hrs by standardized rotarod test. The series is classed as toxicity, organism-based. On the set-up: dose 300 mg/kg, route intraperitoneal. Particulars: in vivo. On the technique in general: Falling from the rotarod earlier than controls is read as motor impairment.

Series [2] has as its system Mus musculus. As to the kind of experiment: Anticonvulsant activity in Kunming mouse assessed as protection against maximal electroshock-induced seizures measured as abolition of hind limb tonic extension spasm at 300 mg/kg, ip after 0.5 hrs. The arrangement: dose 300 mg/kg. Conditions: Hindlimb. It counts as functional, organism-based. In general terms: Protection in the maximal electroshock model is a classic sign of anticonvulsant action.

Series [3] has as its system Mus musculus. Briefly: Anticonvulsant activity in Kunming mouse assessed as protection against maximal electroshock-induced seizures measured as abolition of hind limb tonic extension spasm at 300 mg/kg, ip after 4 hrs. It counts as functional, organism-based. On the set-up: dose 300 mg/kg. Particulars: Hindlimb.
The test system of series [4] is Mus musculus. As to the kind of experiment: Anticonvulsant activity in Kunming mouse assessed as protection against subcutaneous pentylenetetrazole-induced seizures at 300 mg/kg, ip after 4 hrs. It counts as functional, organism-based. The arrangement: dose 300 mg/kg.
Series [5] has as its system Mus musculus. As to the kind of experiment: Neurotoxicity in Kunming mouse assessed as motor impairment at 300 mg/kg, ip after 0.5 hrs by standardized rotarod test. The series is classed as toxicity, organism-based. The arrangement: dose 300 mg/kg, route intraperitoneal. Conditions: in vivo.
Series [6] concerns Mus musculus. Briefly: Anticonvulsant activity in Kunming mouse assessed as protection against subcutaneous pentylenetetrazole-induced seizures at 300 mg/kg, ip after 0.5 hrs. It counts as functional, organism-based. The arrangement: dose 300 mg/kg.
The subject of series [7] is Mus musculus. As to the kind of experiment: Anticonvulsant activity in Kunming mouse assessed as protection against maximal electroshock-induced seizures measured as abolition of hind limb tonic extension spasm at 100 mg/kg, ip after 4 hrs. The series is classed as functional, organism-based. Particulars: Hindlimb. On the set-up: dose 100 mg/kg.
Series [8] has as its system Mus musculus. As to the kind of experiment: Anticonvulsant activity in Kunming mouse assessed as protection against maximal electroshock-induced seizures measured as abolition of hind limb tonic extension spasm at 100 mg/kg, ip after 0.5 hrs. Particulars: Hindlimb. On the set-up: dose 100 mg/kg. The series is classed as functional, organism-based.
The subject of series [9] is Mus musculus. Briefly: Neurotoxicity in Kunming mouse assessed as motor impairment at 100 mg/kg, ip after 0.5 hrs by standardized rotarod test. The series is classed as toxicity, organism-based. On the set-up: dose 100 mg/kg, route intraperitoneal. Particulars: in vivo.
Series [10] has as its system Mus musculus. As to the kind of experiment: Protective index, ratio of TD50 for neurotoxicity in ip dosed Kunming mouse to ED50 for protection against maximal electroshock-induced seizure in ip dosed Kunming mouse. The series is classed as functional.
For series [11], the system named is Mus musculus. Briefly: Anticonvulsant activity in ip dosed Kunming mouse assessed as protection against maximal electroshock-induced seizures measured as abolition of hind limb tonic extension spasm after 0.5 hrs. The series is classed as functional. Conditions: Hindlimb.
Series [12] concerns Mus musculus. Briefly: Anticonvulsant activity in Kunming mouse assessed as protection against maximal electroshock-induced seizures measured as abolition of hind limb tonic extension spasm at 30 mg/kg, ip after 0.5 hrs. On the set-up: dose 30 mg/kg. The series is classed as functional, organism-based. Particulars: Hindlimb.
Series [13] is described as follows: Neurotoxicity in ip dosed Kunming mouse assessed as motor impairment after 4 hrs by standardized rotarod test. The series is classed as toxicity, organism-based. Conditions: in vivo.
Series [14] concerns Mus musculus. Briefly: Anticonvulsant activity in Kunming mouse assessed as protection against maximal electroshock-induced seizures measured as abolition of hind limb tonic extension spasm at 30 mg/kg, ip after 4 hrs. On the set-up: dose 30 mg/kg. Particulars: Hindlimb. It counts as functional, organism-based.
Series [15] has as its system Mus musculus. As to the kind of experiment: Anticonvulsant activity in Kunming mouse assessed as protection against subcutaneous pentylenetetrazole-induced seizures at 100 mg/kg, ip after 0.5 hrs. The arrangement: dose 100 mg/kg. The series is classed as functional, organism-based.
Series [16] has as its system Mus musculus. Briefly: Neurotoxicity in Kunming mouse assessed as motor impairment at 100 mg/kg, ip after 4 hrs by standardized rotarod test. Particulars: in vivo. The arrangement: dose 100 mg/kg, route intraperitoneal. It counts as toxicity, organism-based.

The source made the active and inactive calls. No cut-off for these calls is given here.

Take `CC1(C)CC12NC(=O)N(CCNS(C)(=O)=O)C2=O` (racemic): the Activity entry in series [1] and in series [5] was “Non-toxic” each time. Moreover, the outcome in [2], in series [3], in series [4] and in [6] was inactive.
For the compound `CCCCS(=O)(=O)NCCN1C(=O)NC2(CC2(C)C)C1=O` (racemic), the Activity result in series [1] and in series [5] was “Non-toxic” in each case. In addition, the result in series [7] and in series [8] was Active. Moreover, the outcome in series [4] and in series [6] was inactive.
With `CN(C)S(=O)(=O)NCCN1C(=O)NC2(CC2(C)C)C1=O` (racemic), the Activity entry in series [1] and in series [5] was “Non-toxic” in each case. The outcome in series [2], in [4] and in series [6] was inactive. Also, in [3], the result was Active.
With `CC1(C)CC12NC(=O)N(CCNS(=O)(=O)c1cccs1)C2=O` (racemic), the Activity result in series [1] and in series [9] was “Toxic” each time. Moreover, the outcome in series [3] and in [8] was Active. Also, the outcome in [4] and in series [6] was inactive.
As a reminder, the ED50 is the dose at which the effect has come halfway, by size or by number of responders. For orientation: TD50 means the dose at which the toxic effect under study appears in half of the subjects. As for `Cc1ccc(S(=O)(=O)NCCN2C(=O)NC3(CC3(C)C)C2=O)cc1` (racemic), the Activity entry is listed as “Non-toxic” in series [1] and “Toxic” in series [5]. The result in series [7], in [12] and in series [6] was Active. Moreover, the “Ratio TD50/ED50” value in [10] was 12. The ED50 in series [11] is 40.6 mg/kg. Further, the outcome in [4] was inactive. In series [13], the TD50 at 4 h came to 488 mg/kg.
With `CC1(C)CC12NC(=O)N(CCNS(=O)(=O)c1ccc(F)cc1)C2=O` (racemic), the Activity entry in series [1] and in series [5] was “Non-toxic” each time. For the same compound, the “Ratio TD50/ED50” value in [10] amounted to 20. The outcome in series [14], in series [12] and in series [6] was Active. In [11], the median effective dose (ED50) was determined as 28.1 mg/kg. For the same compound, in series [4], the outcome was inactive. Moreover, the TD50 at 4 h in [13] worked out at 561 mg/kg.
Regarding `CC1(C)CC12NC(=O)N(CCNS(=O)(=O)c1ccc([N+](=O)[O-])cc1)C2=O` (racemic), the Activity entry in [1] and in series [5] was “Non-toxic” each time. The outcome in series [2] was Active. Further, the result in [3], in series [4] and in series [6] was inactive.
`CC1(C)CC12NC(=O)N(CCNS(=O)(=O)c1cccc([N+](=O)[O-])c1)C2=O` (racemic): the Activity result in [1] is on record as “Non-toxic”; in series [5] it was “Toxic”. For the same compound, the result in [3], in series [4] and in series [6] was inactive. In series [8], the outcome was Active.
Regarding `CC(C)c1cc(C(C)C)c(S(=O)(=O)NCCN2C(=O)NC3(CC3(C)C)C2=O)c(C(C)C)c1` (racemic), the Activity entry in series [1] and in [5] was “Non-toxic” each time. For the same compound, the outcome in [3] and in [8] was Active. The result in [4] and in series [6] was inactive.
For the compound `CCOC(=O)C1(NC(=O)NCCNS(C)(=O)=O)CC1(C)C` (racemic), the Activity result in [1] and in [5] was “Non-toxic” in each case. In addition, the result in [2], in series [3], in series [4] and in series [6] was inactive.
Turning to `CCCCS(=O)(=O)NCCNC(=O)NC1(C(=O)OCC)CC1(C)C` (racemic), the Activity entry in series [1] and in [5] was “Non-toxic” each time. The outcome in [3], in [4] and in series [6] was inactive. Besides, the result in [8] was Active.
Take `CCOC(=O)C1(NC(=O)NCCNS(=O)(=O)N(C)C)CC1(C)C` (racemic): the Activity entry in [1] and in series [5] was “Non-toxic” throughout. Moreover, the outcome in series [2], in series [3], in [4] and in series [6] was inactive.
Regarding `CCOC(=O)C1(NC(=O)NCCNS(=O)(=O)c2cccs2)CC1(C)C` (racemic), the values for the Activity result in [1] and in series [5] were “Non-toxic” and “Toxic”, respectively. Moreover, in series [2], the result was Active. Moreover, the outcome in [3], in series [4] and in series [6] was inactive.
For `CCOC(=O)C1(NC(=O)NCCNS(=O)(=O)c2ccc(C)cc2)CC1(C)C` (racemic), the Activity result in [1] and in series [5] was “Non-toxic” throughout. The outcome in series [3] and in [8] was Active. Also, the outcome in series [4] and in series [6] was inactive.
With `CCOC(=O)C1(NC(=O)NCCNS(=O)(=O)c2ccc(F)cc2)CC1(C)C` (racemic), the Activity result in [1] and in [5] was “Non-toxic” in each case. Also, the outcome in [7] and in [8] was Active. The outcome in series [4] and in series [6] was inactive.
`CCOC(=O)C1(NC(=O)NCCNS(=O)(=O)c2ccc([N+](=O)[O-])cc2)CC1(C)C` (racemic): the Activity entry in series [1] and in series [5] was “Non-toxic” each time. In addition, the result in series [2], in [3], in series [4] and in [6] was inactive.
`CCOC(=O)C1(NC(=O)NCCNS(=O)(=O)c2cccc([N+](=O)[O-])c2)CC1(C)C` (racemic): the Activity result in [1] and in [5] was “Non-toxic” throughout. Also, the result in series [2], in [3], in series [4] and in [6] was inactive.
As to `CCOC(=O)C1(NC(=O)NCCNS(=O)(=O)c2c(C(C)C)cc(C(C)C)cc2C(C)C)CC1(C)C` (racemic), the Activity result in series [1] and in series [5] was “Non-toxic” each time. Also, the outcome in series [2] was Active. Besides, the outcome in series [3], in [4] and in series [6] was inactive.
Regarding `CCC1(C)CC(=O)NC1=O` (configuration not stated) [ETHOSUXIMIDE], the Activity entry in series [1] and in series [5] was “Non-toxic” each time. The result in series [2] and in series [3] was inactive. Besides, the result in series [4] and in series [15] was Active.
`O=C1NC(=O)C(c2ccccc2)(c2ccccc2)N1` [PHENYTOIN]: the Activity entry in series [16] and in [9] was “Toxic” in each case. Also, the result in [14] and in series [12] was Active. For the same compound, in series [11], the ED50 turned out to be 9.2 mg/kg. The result in [4] and in series [6] was inactive.
